Measured values taken from US7202280B2, “Methods for the treatment and prevention of pancreatitis and for induction of liver regeneration” (priority 2002, dated 2007).

Assays:
SSAT = SSAT activity in SSAT transgenic rats after polyamine analogues without or with MDL72527; format: in vivo, rat
Method: FIGS. 9A–9B. Effect of polyamine analogues without or with MDL72527 on hepatic SSAT (FIG. 9A) and PAO (FIG. 9B) activities in SSAT transgenic rats. The rats were treated with the drugs as described in the legend for FIGS. 8A–8D. There were three to four animals in each group.
The production of transgenic Wistar rats (UKUR30) and mice (UKU181) harboring metallothionein-SSAT fusion gene (Suppola, S., Pietilä, M., Parkkinen, J. J., Korhonen, V. P., Alhonen, L., Halmekytö, M., Porter, C. W., and Jänne, J. (1999) Biochem. J. 338, 311–316) has been described earlier (Alhonen, L., Parkkinen, J. J., Keinänen, T., Sinervirta, R., Herzig, K. H., and Jänne, J. (2000) Proc. Natl. Acad. Sci. U.S.A. 97, 8290–8295; Lukkarinen, J., Gröhn, O., Sinervirta, R., Järvinen, A., Kauppinen, R. A., Jänne, J., and Alhonen, L. (1997) Stroke 28, 639–645). Partial hepatectomy was carried out according to the original method of Higgins and Anderson (Higgins, G. H., and Anderson, R. M. (1931) Arch. Pathol. 12, 186–202). […]
PAO activity was measured to verify the effectiveness of MDL72527 treatment and to determine whether the analogues have any effect on its activity. […]

[1] = test system: syngenic and transgenic rats; experiment: Pancreatic SSAT activity and polyamine pools after zinc and methylspermidine; format: in vivo, rat
Method: FIGS. 1a-1d. Pancreatic polyamine pools in syngenic and transgenic rats after zinc and methylspermidine. […] Three to five animals in each group. Me-spd, methylspermidine. The production of transgenic Wistar rats (UKUR30) and mice (UKU181) harboring metallothionein-SSAT fusion gene (Suppola, […]., Porter, C. W., and Jänne, J. (1999) Biochem. […] (2000) Proc. Natl. Acad. Sci. U.S.A. 97, 8290-8295; Lukkarinen, […]., and Alhonen, L. (1997) Stroke 28, 639-645). Partial hepatectomy was carried out according to the original method of Higgins and Anderson (Higgins, G. H., and Anderson, R. M. (1931) Arch. Pathol. 12, 186-202). Treatments before partial hepatectomy and the determination of DNA synthesis were carried out as in ([…]., Suppola, […]., and […]. Biol. Chem. 277, 39867-39872). Transgenic 10 weeks old male rats were injected twice with MDL72527 (50 mg/kg i.p.) at 16-h interval to inactivate PAO according to (Bolkenius, F. N., Bey, P., and Seiler, N. (1985) Biochim. Biophys. […] An aliquot of the homogenates was used for the polyamine assays. The homogenates were centrifuged (at 13 000×g, for 30 min, at 4° C.) and the supernatants were used for the enzyme activity assays. The Institutional Animal Care and Use Committee of the University of Kuopio and by the Provincial Government approved animal experiments. […] Merck (Darmstadt, Germany). […] The changes in pancreatic polyamine pools in response to zinc and methylspermidine are depicted in FIG. 1. […] The various treatments only marginally altered pancreatic putrescine pools (FIG. 1a). […] FIG. 1d depicts the accumulation of the analogue in the pancreas after a single dose or two doses.

Row | SMILES | hepatic SSAT activity (SSAT; analogue 25 mg/kg i.p. twice) | hepatic SSAT activity (SSAT; analogue combined with MDL72527) | accumulation of the analogue in the pancreas ([1]; single dose or two doses of 50 mg/kg) | SSAT activity, Pancreas ([1]; syngenic rats, zinc 10 mg/kg with methylspermidine 50 mg/kg) | SSAT activity, Pancreas ([1]; transgenic rats, analogue with zinc vs zinc alone) | Pancreatic spermidine pool ([1]; transgenic rats, zinc 10 mg/kg)
1 | CC(N)CCNCCCCNCCC(C)N (stereo not drawn) [bis-α-methylspermine, 1,12-dimethylspermine] | significantly increased hepatic SSAT activity | further enhanced |  |  |  | 
2 | CC(N)CCNCCCCN (stereo not drawn) [α-methylspermidine, 1-methylspermidine] |  |  | effectively accumulated in the pancreas apparently with no further metabolism | did not influence SSAT activity | only slightly increased SSAT activity | little effect on zinc-induced depletion of spermidine
